Measurements published in patent US4499106A, “Lipolytic composition and method of treating obesity” (Boehringer Ingelheim KG, priority 1983, dated 1985).
Entries after “also recorded” stand apart in the source; their conditions may differ.

Legend:
[1] = system: unesterified fatty acids in the blood plasma; experiment: Metabolic effects in blood plasma of fed rats: unesterified fatty acids; type: in vivo, rat; settings: for Unesterified Fatty Acids Δ%: blood plasma
Description: (§9) Metabolic effects in the blood plasma of fed rats.
(§10) μmol/l (unesterified fatty acids) and mmol/l (lactate).
(§11) Averages ± S.E.M. N of the treated groups = 5-6.

[2] = system: lactate in the blood plasma; experiment: Metabolic effects in blood plasma of fed rats: lactate; type: in vivo, rat; settings: for Lactate Δ%: blood plasma; for lactacidemia compared with Me 693: vs Me 693, in words
Description: as §9, §10, §11

[3] = system: unesterified fatty acids in the blood; experiment: Unesterified fatty acids, conscious rat (maximum percentage change vs control); type: in vivo
Description: (§1) If the effects on the heart (heart rate), circulation (diastolic blood pressure, peripheral vasodilation) and bronchi, on the one hand, and the increase in the unesterified fatty acids in the blood after the administration of Me 693, on the other hand, are compared with the effects of isoprenaline and fenoterol, it is clear that the cardiovascular and bronchospasmolytic effects are much greater after administration of the comparison substances than with the Me 693, whereas the reverse is true of the lipolytic effects.
(§2) Metabolic and cardiovascular effects and bronchospasmolytic effects of Me
(§3) isoprenaline and fenoterol in animals of various types. The table gives
(§4) maximum percentage changes compared with control values.

[4] = system: heart (heart rate); experiment: Heart rate, anesthetized dog (maximum percentage change vs control); type: in vivo; settings: for Heart Rate Δ%: maximum change; for cardiovascular effects compared with Me 693: vs Me 693, in words
Description: as §1, §2, §3, §4

[5] = system: circulation (diastolic blood pressure); experiment: Diastolic blood pressure, anesthetized dog (maximum percentage change vs control); type: in vivo
Description: as §1, §2, §3, §4

[6] = system: circulation (peripheral vasodilation); experiment: Peripheral vasodilation, anesthetized dog (maximum percentage change vs control); type: in vivo
Description: as §1, §2, §3, §4

[7] = system: bronchi (ACh spasm); experiment: Bronchospasmolysis, anesthetized guinea pig (inhibition of ACh spasm); type: in vivo; settings: for bronchospasmolytic effects compared with Me 693: vs Me 693, in words
Description: as §1, §2, §3, §4

[8] = system: unesterified fatty acids in the blood; experiment: Metabolic effects of oral administration to three conscious dogs (unesterified fatty acids, triglycerides, lactate); type: in vivo, dog; settings: for Triglycerides Δ% / Unesterified Fatty Acids Δ%: maximum change
Protocol: (§5) A dose of only 0.1 mg/kg of Me 693 gives virtually a 100% increase in the unesterified fatty acids in the blood while the heart rate and the diastolic blood pressure are unaffected.
(§6) Metabolic and cardiovascular effects of Me 693 administered
(§7) orally to three conscious dogs. The table gives the maximum
(§8) percentage changes compared with the control values.

[9] = system: heart rate and diastolic blood pressure; experiment: Cardiovascular effects of oral administration to three conscious dogs (heart rate, diastolic blood pressure); type: in vivo, dog; settings: for Diastolic Blood Pressure Δ% / Heart Rate Δ%: maximum change
Protocol: as §5, §6, §7, §8

[10] = system: metabolism (development and release of heat); experiment: Calorimetric effects after intravenous administration to rabbits; type: in vivo, rabbit; settings: 0.5 mg/kg intravenously
[11] = system: lipolysis and glycogenolysis; experiment: Summary of animal experiments: lipolytic and glycogenolytic (lactate) activity; type: in vivo; settings: in words
Description: To summarize, the animal experiments with Me 693 have given the following results: […]

SMILES: CC(Cc1ccc(O)cc1)NCC(O)c1cc(O)cc(O)c1 (stereo not shown) [Fenoterol, fenoterol]
- Unesterified Fatty Acids Δ% ([1]; 0.1 mg/kg s.c.): +18%
- Unesterified Fatty Acids Δ% ([1]; 1.0 mg/kg s.c.): +30%
- Lactate Δ% ([2]; 0.1 mg/kg s.c.): +33%
- Lactate Δ% ([2]; 1.0 mg/kg s.c.): +109%
- lactacidemia compared with Me 693 [2]: significantly greater
- Unesterified Fatty Acids Δ% ([3]; 0.1 mg/kg s.c.): +18%
- Unesterified Fatty Acids Δ% ([3]; 1.0 mg/kg s.c.): +30%
- Heart Rate Δ% ([4]; 0.1 μg/kg i.v.): +3%
- Heart Rate Δ% ([4]; 1 μg/kg i.v.): +27%
- Heart Rate Δ% ([4]; 10 μg/kg i.v.): +50%
- cardiovascular effects compared with Me 693 [4]: much greater
- Diastolic Blood Pressure Δ% ([5]; 0.1 μg/kg i.v.): -13%
- Diastolic Blood Pressure Δ% ([5]; 1 μg/kg i.v.): -33%
- Diastolic Blood Pressure Δ% ([5]; 10 μg/kg i.v.): -54%
- Peripheral Vasodilation Δ% ([6]; 1 μg/kg i.a.): -20%
- Peripheral Vasodilation Δ% ([6]; 3 μg/kg i.a.): -28%
- Bronchospasmolysis, % Inhibition of ACh spasm ([7]; 10 μg/kg i.v.): 67-100%
- bronchospasmolytic effects compared with Me 693 [7]: much greater

SMILES: CC(C)NCC(O)c1ccc(O)c(O)c1 (stereo not shown) [Isoprenaline, isoprenaline]
- Unesterified Fatty Acids Δ% ([1]; 0.1 mg/kg s.c.): +15%
- Unesterified Fatty Acids Δ% ([1]; 1.0 mg/kg s.c.): +27%
- Lactate Δ% ([2]; 0.1 mg/kg s.c.): +112%
- Lactate Δ% ([2]; 1.0 mg/kg s.c.): +148%
- lactacidemia compared with Me 693 [2]: significantly greater
- Unesterified Fatty Acids Δ% ([3]; 0.1 mg/kg s.c.): +15%
- Unesterified Fatty Acids Δ% ([3]; 1.0 mg/kg s.c.): +27%
- Heart Rate Δ% ([4]; 0.1 μg/kg i.v.): +18%
- Heart Rate Δ% ([4]; 1 μg/kg i.v.): +37%
- Heart Rate Δ% ([4]; 10 μg/kg i.v.): +56%
- cardiovascular effects compared with Me 693 [4]: much greater
- Diastolic Blood Pressure Δ% ([5]; 0.1 μg/kg i.v.): -40%
- Diastolic Blood Pressure Δ% ([5]; 1 μg/kg i.v.): -62%
- Diastolic Blood Pressure Δ% ([5]; 10 μg/kg i.v.): -71%
- Peripheral Vasodilation Δ% ([6]; 0.001 μg/kg i.a. (so in the source)): -28%
- Peripheral Vasodilation Δ% ([6]; 0.003 μg/kg i.a.): -24%
- Peripheral Vasodilation Δ% ([6]; 0.03 μg/kg i.a.): -33%
- Bronchospasmolysis, % Inhibition of ACh spasm ([7]; 10 μg/kg i.v.): 76-94%
- bronchospasmolytic effects compared with Me 693 [7]: much greater

SMILES: CC(COc1ccccc1)NCC(O)c1ccc(O)c(NS(=O)(=O)N(C)C)c1 (stereo not shown) [Me 693, 1-(4-hydroxy-3-dimethylamino-sulfonamidophenyl)-1-hydroxy-2-(1-phenoxy-isopropylamino)ethane]
- Unesterified Fatty Acids Δ% ([1]; 0.1 mg/kg s.c.): +34%
- Unesterified Fatty Acids Δ% ([1]; 1 mg/kg oral): +63%
- Unesterified Fatty Acids Δ% ([1]; 1.0 mg/kg s.c.): +190%
- increase in unesterified fatty acids in the blood vs comparison substances ([1]; identical dosage, vs isoprenaline and fenoterol, in words): much higher increase
- Lactate Δ% ([2]; 0.1 mg/kg s.c.): 0%
- Lactate Δ% ([2]; 1.0 mg/kg s.c.): +34%
- Unesterified Fatty Acids Δ% ([3]; 0.1 mg/kg s.c.): +34%
- Unesterified Fatty Acids Δ% ([3]; 1.0 mg/kg s.c.): +190%
- Heart Rate Δ% ([4]; 10 μg/kg i.v.): +8%
- Heart Rate Δ% ([4]; 20 μg/kg i.v.): +5%
- Diastolic Blood Pressure Δ% ([5]; 10 μg/kg i.v.): -24%
- Diastolic Blood Pressure Δ% ([5]; 20 μg/kg i.v.): -23%
- Peripheral Vasodilation Δ% ([6]; 10 μg/kg i.a.): -14%
- Peripheral Vasodilation Δ% ([6]; 30 μg/kg i.a.): -15%
- Bronchospasmolysis, % Inhibition of ACh spasm ([7]; 100 μg/kg i.v.): 0-2%
- Triglycerides Δ% ([8]; 0.1 mg/kg oral): +18%
- Triglycerides Δ% ([8]; 0.3 mg/kg oral): +10%
- Unesterified Fatty Acids Δ% ([8]; 0.3 mg/kg oral): +95%
- Triglycerides Δ% ([8]; 1.0 mg/kg oral): +37%
- Unesterified Fatty Acids Δ% ([8]; 1.0 mg/kg oral): +112%
- unesterified fatty acids (in words) ([8]; 0.3 and 1 mg/kg oral): increased still further to a high level
- heart rate and diastolic blood pressure (in words) ([9]; 0.1 mg/kg oral): unaffected
- Diastolic Blood Pressure Δ% ([9]; 0.1 mg/kg oral): 0%
- Heart Rate Δ% ([9]; 0.1 mg/kg oral): 0%
- Diastolic Blood Pressure Δ% ([9]; 0.3 mg/kg oral): -15%
- Heart Rate Δ% ([9]; 0.3 mg/kg oral): +36%
- Diastolic Blood Pressure Δ% ([9]; 1.0 mg/kg oral): -26%
- Heart Rate Δ% ([9]; 1.0 mg/kg oral): +95%
- blood pressure (in words) ([9]; 0.3 and 1 mg/kg oral): reductions in blood pressure
- heart rate (in words) ([9]; 0.3 and 1 mg/kg oral): dose-dependent increases in heart rate
- core temperatures [10]: higher core temperatures
- development and release of heat [10]: increased significantly
- heart rate and ear temperature [10]: slight increase in heart rate and ear temperature
- oxygen consumption [10]: increased oxygen consumption
- respiratory quotient [10]: reduction in the respiratory quotient
- differentiation between lipolytic and glycogenolytic activities ([11]; animal experiments): Extreme differentiation between the lipolytic and glycogenolytic activities
- glycogenolytic effect ([11]; animal experiments): virtually negligible glycogenolytic activity; also recorded: does not have the glycogenolytic effect
- lipolytic effect ([11]; animal experiments): Strong lipolytic activity; also recorded: particularly long-lasting selective lipolytic effect
- blood lactate [11]: no changes are observed in blood lactate
